Results: PMC5458211, “Mitochondrial VDAC1-based peptides: Attacking oncogenic properties in glioblastoma” (Oncotarget, 2017)

System: apoptosis-related proteins
Assay: Expression of apoptosis-related proteins in treated tumors (IHC, immunoblot)
Assay type: in vivo, human U-87MG in nude mice
Conditions: treated tumors vs PBS/DMSO
Excerpt: Red color indicates PI nuclear staining and green color TUNEL staining. B. Representative sections from PBS/DMSO- and peptide-TTs IHC stained for p53, Cyto c, AIF, Caspase 3 and Smac/Diablo and then hematoxylin-stained and visualized by microscopy. C. Tissue lysates obtained from controls and several Tf-D-LP4-TTs were immunoblotted for p53, Caspase 8, Cyto c, Smac/Diablo, Caspase 3 and Bcl-2. D. Quantitative analysis of immunoblots is shown (n=2-4).
Formalin-fixed, paraffin-embedded sections of control and peptide-TTs were hematoxylin-eosin stained, probed with appropriate antibodies via IHC staining or immunoblotting of cells and tissue extracts. […]
HBSS solution. Cells or tumor tissue were lysed using lysis buffer (50 mM Tris-HCl, pH 7.5, 150 mM NaCl, 1
Xenograft and intracranial-orthotopic mouse mM EDTA, 1.5 mM MgCl2, 10% glycerol, 1% Triton models X-100, supplemented with a protease inhibitor cocktail
(Calbiochem, UK). Cell lysates were then centrifuged at U-87MG glioblastoma cells (3 x106) were inoculated 600xg (10 min at 4°C) and samples (10-40 μg of protein) s.c. into the hind leg ﬂanks of athymic eight-week old were subjected to SDS-PAGE and immunoblotting male nude mice (Envigo). Thirteen days post-inoculation, using various primary antibodies (sources and dilutions tumor volume was measured and calculated (100-130 as detailed in supplementary Table 2), followed by mm3) and mice were randomized into three groups (5 the appropriate HRP-conjugated secondary antibodies mice/group). Each treatment substance was injected into (i.e., anti-mouse, anti-rabbit or anti-goat). Blots the established s,c. tumors using PBS containing 0.26% were developed using enhanced chemiluminescence DMSO or peptide in PBS, 0.26% DMSO/20 μM). The (Biological Industries). Band intensities were analyzed xenografts were injected 20 µl per tumor (2 points) every by densitometry using Multi Gauge software (Fujifilm) two days. Beginning on the day of inoculation, mouse and the values were normalized to the intensities of the weight and tumor volume were monitored twice a week appropriate β-actin signal that served as a loading control. for a period of 23 days using a digital caliper. At the end of the experiments, the mice were sacrificed, tumors were IHC of tumor tissue sections excised and ex vivo weight was determined. Half of each tumor was either fixed in 4% buffered formaldehyde, IHC staining was performed on 5 μm-thick paraffin-embedded and processed for IHC or frozen in formalin-fixed and paraffin-embedded tumor tissue liquid nitrogen for later immunoblot analysis. sections. The sections were deparaffinized by placing To generate an intracranial-orthotopic mouse model, the slides at 60°C for 1 h and using xylene. […]
(Stoelting, Wood Dale, IL). A middle incision was made c, cytochrome c oxidase subunit IVc, GAPDH, Glut1, on the skull and a burr hole was introduced 0.5 mm HK-II, Klf4, LDH, Nestin, NGFR, P53, SMAC/Diablo, anterior to the bregma and 2.5 mm lateral to the midline Sox2, S100b, VDAC1) was performed in 0.01 M citrate using a drill (Stoelting). A 31-gauge needle loaded with buffer (pH 6.0). For CD31, HK-I and Ki-67, antigen 10 µL PBS was used to deliver tumor cells. The needle retrieval was performed in 10 mM Tris-EDTA (pH 9) and tip was inserted into the brain 3 mm deep, relative to the 0.5 M Tris (pH 10), for 30 minutes each at 95-98°C. After skull surface, and maintained at this depth for 2 minutes washing sections in PBS containing 0.1% Triton-X100 before injection of tumor cells. Under sterile conditions, (pH 7.4), non-specific antibody binding was reduced by a 3 µL solution containing U-87MG (8×104) cells was incubating the sections in 10% normal goat serum for 2 injected into the brain parenchyma over a period of […]. After decanting excess serum, sections were incubated
(1 picture or pasted object on this page, not shown here)

SMILES: CC[C@H](C)[C@H](NC(=O)[C@H](C)NC(=O)[C@@H](N)Cc1c[nH]cn1)C(=O)N[C@@H](Cc1ccc(O)cc1)C(=O)N1CCC[C@H]1C(=O)N[C@@H](CCCNC(=N)N)C(=O)N[C@@H](Cc1c[nH]cn1)C(=O)N[C@@H](CO)C(=O)N[C@@H](Cc1c[nH]c2ccccc12)C(=O)N[C@H](C(=O)N[C@@H](Cc1c[nH]c2ccccc12)C(=O)N[C@@H](CCC(=O)O)C(=O)N[C@H](CCCCN)C(=O)N[C@H](CCCCN)C(=O)N[C@H](CC(C)C)C(=O)N[C@H](CCC(=O)O)C(=O)N[C@@H](C(=O)N[C@H](C)C(=O)N[C@@H](C(=O)N[C@H](CC(N)=O)C(=O)N[C@H](CC(C)C)C(=O)N[C@H](C)C(=O)N[C@H](Cc1c[nH]c2ccccc12)C(=O)N[C@@H](C(=O)N[C@H](C)C(=O)NCC(=O)N[C@H](CC(N)=O)C(=O)N[C@H](CO)C(=O)N[C@H](CC(N)=O)C(=O)N[C@@H](CCCCN)C(=O)N[C@@H](Cc1c[nH]c2ccccc12)C(=O)N[C@H](C(=O)N[C@@H](Cc1c[nH]c2ccccc12)C(=O)N[C@@H](CCCCN)C(=O)O)[C@@H](C)O)[C@H](C)O)C(C)C)[C@H](C)O)[C@@H](C)O [Tf-D-LP4]
- Bcl-2 level: almost undetectable
- Caspase 3 expression increase: > 5 fold
- Caspase 8 expression increase: about 20 fold
- Cyto c expression increase: over 10 fold
- SMAC/DIABLO expression: much higher
- p53 expression increase: over 12 fold
